# Source: PubChem BioAssay AID2060882 (Molecular Pharmacology Branch, DTP, NCI, 2025)
# System: 898857-211-R-J1-PDC complex spheroids, growth % test/control
# Test: Anticancer human tumor 898857-211-R-J1-PDC patient-derived melanoma cell line growth inhibition [RAS]
# Details: for IC50: curve of first compound; for viability, T/C: stronger effect = lower value
# From the text: RAS pathway inhibitors in Combinations in Complex Spheroids
# A high-throughput screen of multi-cell type tumor spheroids was designed to identify active combinations of RAS pathway inhibitors and targeted small molecules. Complex spheroids include a stromal component modeled by human endothelial cells (HUVEC) and fibroblasts modeled by human mesenchymal stem cells (MSCs). The concentration ranges selected for each drug and investigational agent were based upon clinically achievable concentrations if the clinical Cmax of the agent was known.
# Compounds. The drugs and investigational agents: abemaciclib (NSC768073), cobimetinib (NSC768068), divarasib (GDC6063, NSC841802), docetaxel (NSC628503), GDC-1971 (RLY-1971, NSC841576), gemcitabine (NSC613327), inavolisib (NSC800729), ipatasertib (NSC767898), KB-0742 (NSC834161), MRTX-1133 (NSC836407), osimertinib (NSC779217), RMC-4630 (NSC839698), RMC-6236 (NSC851965), RMC-6291 (NSC852671), Ro-3306 (NSC812927), sapanisertib (NSC764658), SN-38 (NSC673596), staurosporine (NSC755774), SY5609 (NSC837396), and tovorafenib (DAY101, NSC766906), were obtained from the National Cancer Institute (NCI) Developmental Therapeutics Program Chemical Repository. The FDA-approved anticancer drug set is available from the NCI Developmental Therapeutics Program. […] The stock solutions were prepared in dimethyl sulfoxide (DMSO, Sigma-Aldrich, St. Louis, MO, cat. D2650) at 800-fold the tested concentration and stored at -70 degrees C prior to their use. All drugs and investigational agents were tested over a range starting from a high concentration at or near the clinical Cmax and decreasing in half-log increments. If the clinical Cmax for an agent had not been determined, the highest concentration tested was 10 microM.
# Cell Culture. All cells were maintained in an incubator at 37 degrees C and 5% CO2 with 95% humidity. The PDC lines were cultured according to standard operating procedures established by the NCI PDMR. All PDCs were thawed and cultured in Matrigel-coated flasks prepared with a working solution of 1X Ham's F-12 nutrient mix, without supplementation (Invitrogen, Waltham, MA, cat. 11765054), 100 U/mL penicillin-streptomycin (Invitrogen, cat. 15140122), and 2.5% Matrigel (Corning Inc., Corning, NY, cat. 354248) for the first three passages. The 362531-283-R-J2-PDC and 782815-120-R-J1-PDC lines were cultured in 6C/Colon 1B media, which includes advanced DMEM/F-12 (Thermo Fisher Scientific, cat. 12634028), 10 mM HEPES (Thermo Fisher Scientific, cat. 15630080), 1X GlutaMAX supplement (Thermo Fisher Scientific, cat. 35050061), 0.1 mg/mL primocin (InvivoGen, San Diego, CA, cat. ant-pm-2), 10% defined fetal bovine serum, heat inactivated (HyClone Laboratories Inc., Logan, UT, cat. SH30070.03HI), 50% L-WRN conditioned media (ATCC, cat. CRL-3276), 1.25 mM N-Acetyl-L-cysteine (Sigma-Aldrich, cat. A9165), 10 mM nicotinamide (Sigma-Aldrich, cat. N0636), 1X B-27 supplement (Thermo Fisher Scientific, cat. 17504044), 1X N-2 supplement (Thermo Fisher Scientific, cat. 17502048), 50 ng/mL human EGF (Thermo Fisher Scientific, cat. PHG0311), and 10 microM Y-27632 dihydrochloride (Tocris Bioscience, cat. 1254). The K12877-001-R-J1-PDC line was cultured in 6I media, which includes all 6C/Colon 1B media plus 10 ng/mL human FGF-10 (PeproTech, cat. 100-26), 1 ng/mL human FGF-2 (PeproTech, cat. 100-18B), 1 µM prostaglandin E2 (Tocris Bioscience, cat. 2296), […] hydrocortisone (Sigma-Aldrich, cat. H4001), and […] bovine insulin (Sigma-Aldrich, cat. I6634). The K86415-001-R-J1-PDC line was cultured in 6D media, which includes all 6C/Colon 1B media components minus the L-WRN conditioned media. The 485176-168-R4-J1-PDC was cultured in PANC media, which includes all 6C/Colon 1B media plus 100 ng/mL human FGF-10 (PeproTech, cat. 100-26), 500 nM SB-431542 (Selleckchem, cat. S1067), and 10 nM gastrin (Tocris Bioscience, cat. 3006). […]
# 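Also: spheroids exposed to compound for seven days before readout.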
# 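For viability, T/C in this document: 100% = DMSO vehicle control wells.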
structure (smiles),measurement,setting,value
CC(C)NCC(C(=O)N1CCN(c2ncnc3c2C(C)CC3O)CC1)c1ccc(Cl)cc1 (configuration not stated) + C=CC(=O)N1CCN(c2nc(OCC3CCCN3C)nc3c(F)c(-c4nc(N)cc(C)c4C(F)(F)F)c(Cl)cc23)C(C)C1,IC50,second compound 0.00316 µM,> 10 µM
same,IC50,second compound 0.01 µM,> 10 µM
same,IC50,second compound 0.0316 µM,> 10 µM
same,IC50,second compound 0.1 µM,> 10 µM
same,IC50,second compound 0.316 µM,> 10 µM
same,IC50,second compound 1 µM,> 10 µM
same,"viability, T/C","second compound 0.00316 µM, first compound 0.0316 µM",108%
same,"viability, T/C","second compound 0.00316 µM, first compound 0.1 µM",99.8%
same,"viability, T/C","second compound 0.00316 µM, first compound 0.316 µM",97.5%
same,"viability, T/C","second compound 0.00316 µM, first compound 1 µM",89.2%
same,"viability, T/C","second compound 0.00316 µM, first compound 3.16 µM",81.2%
same,"viability, T/C","second compound 0.00316 µM, first compound 10 µM",70.1%
same,"viability, T/C","second compound 0.01 µM, first compound 0.0316 µM",101%
same,"viability, T/C","second compound 0.01 µM, first compound 0.1 µM",104%
same,"viability, T/C","second compound 0.01 µM, first compound 0.316 µM",104%
same,"viability, T/C","second compound 0.01 µM, first compound 1 µM",85.8%
same,"viability, T/C","second compound 0.01 µM, first compound 3.16 µM",85.9%
same,"viability, T/C","second compound 0.01 µM, first compound 10 µM",70.7%
same,"viability, T/C","second compound 0.0316 µM, first compound 0.0316 µM",111%
same,"viability, T/C","second compound 0.0316 µM, first compound 0.1 µM",101%
same,"viability, T/C","second compound 0.0316 µM, first compound 0.316 µM",114%
same,"viability, T/C","second compound 0.0316 µM, first compound 1 µM",103%
same,"viability, T/C","second compound 0.0316 µM, first compound 3.16 µM",78.9%
same,"viability, T/C","second compound 0.0316 µM, first compound 10 µM",60.8%
same,"viability, T/C","second compound 0.1 µM, first compound 0.0316 µM",118%
same,"viability, T/C","second compound 0.1 µM, first compound 0.1 µM",110%
same,"viability, T/C","second compound 0.1 µM, first compound 0.316 µM",102%
same,"viability, T/C","second compound 0.1 µM, first compound 1 µM",88.8%
same,"viability, T/C","second compound 0.1 µM, first compound 3.16 µM",91.8%
same,"viability, T/C","second compound 0.1 µM, first compound 10 µM",66.7%
same,"viability, T/C","second compound 0.316 µM, first compound 0.0316 µM",114%
same,"viability, T/C","second compound 0.316 µM, first compound 0.1 µM",129%
same,"viability, T/C","second compound 0.316 µM, first compound 0.316 µM",126%
same,"viability, T/C","second compound 0.316 µM, first compound 1 µM",112%
same,"viability, T/C","second compound 0.316 µM, first compound 3.16 µM",93.3%
same,"viability, T/C","second compound 0.316 µM, first compound 10 µM",71.4%
same,"viability, T/C","second compound 1 µM, first compound 0.0316 µM",116%
same,"viability, T/C","second compound 1 µM, first compound 0.1 µM",121%
same,"viability, T/C","second compound 1 µM, first compound 0.316 µM",117%
same,"viability, T/C","second compound 1 µM, first compound 1 µM",112%
same,"viability, T/C","second compound 1 µM, first compound 3.16 µM",97.5%
same,"viability, T/C","second compound 1 µM, first compound 10 µM",70.4%
